The record followed here is patent US20250368649A1, “TETRAHYDROPYRIDOPYRIMIDINE PAN-KRAS INHIBITORS” (Mirati Therapeutics, Inc., priority 2022, published 2025).

For one test, the target named is KRas WT (Homo sapiens, UniProt P01116). As to the kind of experiment: KRas binding assay (TR-FRET displacement), KRas WT. The conditions noted are these: TR-FRET displacement.
Another test concerns the target KRas G12A (Homo sapiens, UniProt P01116, G12A). It counts as binding. The conditions noted are these: TR-FRET displacement, read-out: Binding to KRas (IC50 nM) G12A.
In a further test the target is KRas G12C (Homo sapiens, UniProt P01116, G12C). Type of test: binding. The conditions noted are these: TR-FRET displacement, read-out: Binding to KRas (IC50 nM) G12C.
For the next test, the target named is KRas G12S (Homo sapiens, UniProt P01116, G12S). It counts as binding. To be noted: TR-FRET displacement, read-out: Binding to KRas (IC50 nM) G12S.
The target in a further test is KRas G13D (Homo sapiens, UniProt P01116, G13D). Type of test: binding. The conditions noted are these: TR-FRET displacement, read-out: Binding to KRas (IC50 nM) G13D.
For another test, the target named is KRas Q61H (Homo sapiens, UniProt P01116, Q61H). Nature of the test: KRas binding assay (TR-FRET displacement), KRas Q61H. The conditions noted are these: TR-FRET displacement.
The test system of the next test is ASPC1 cells. Nature of the test: Inhibition of KRas-mediated phosphorylation of ERK (Cisbio HTRF pERK), ASPC1 cells. Type of test: cell-based. To be noted: Homo sapiens, AsPC-1 cells; for IC50: ASPC1, 3 h, 3 hr compound incubation, Cisbio pERK HTRF; for inhibition at 0.1 µM: ASPC1, single point at 100 nM, 3 hrs compound incubation.
The next test has as its system H727 cells. Nature of the test: Inhibition of KRas-mediated phosphorylation of ERK (Cisbio HTRF pERK), H727 cells. Type of test: cell-based. To be noted: Homo sapiens; for IC50: NCI-H727, 3 h, 3 hr compound incubation, Cisbio pERK HTRF; for inhibition at 0.1 µM: NCI-H727, single point at 100 nM, 3 hrs compound incubation.
The target of the next test is KRas G12D (Homo sapiens, UniProt P01116, G12D). Nature of the test: biochemical. The conditions noted are these: Binding to KRas (IC50 nM) G12D, TR-FRET displacement, KRas G12D.
Another test deals with KRas G12R (Homo sapiens, UniProt P01116, G12R). Nature of the test: biochemical. The conditions noted are these: Binding to KRas (IC50 nM) G12R, TR-FRET displacement, KRas G12R.
A further test has as its target KRas G12V (Homo sapiens, UniProt P01116, G12V). Nature of the test: biochemical. To be noted: Binding to KRas (IC50 nM) G12V, TR-FRET displacement, KRas G12V.

A value given as a limit tells only on which side of the number the result lay.

Chain of KRas Q61H (P01116 1-169 isoform P01116-2 Q61H): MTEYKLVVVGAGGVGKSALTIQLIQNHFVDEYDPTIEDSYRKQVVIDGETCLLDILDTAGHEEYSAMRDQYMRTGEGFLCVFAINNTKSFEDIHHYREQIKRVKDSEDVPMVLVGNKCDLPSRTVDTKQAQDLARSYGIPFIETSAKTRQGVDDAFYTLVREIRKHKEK
Chain of KRas G12V (P01116 1-169 isoform P01116-2 G12V): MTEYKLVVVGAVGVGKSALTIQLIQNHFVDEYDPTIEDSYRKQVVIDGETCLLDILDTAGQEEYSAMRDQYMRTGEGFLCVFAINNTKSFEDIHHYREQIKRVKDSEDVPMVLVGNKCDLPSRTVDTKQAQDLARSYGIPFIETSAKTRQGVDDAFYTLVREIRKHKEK
Chain of KRas G12D (P01116 1-169 isoform P01116-2 G12D): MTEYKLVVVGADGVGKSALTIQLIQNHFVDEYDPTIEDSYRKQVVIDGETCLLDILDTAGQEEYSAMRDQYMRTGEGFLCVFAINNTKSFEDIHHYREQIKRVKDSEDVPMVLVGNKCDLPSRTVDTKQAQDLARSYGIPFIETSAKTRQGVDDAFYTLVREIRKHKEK
Chain of KRas G12C (P01116 1-169 isoform P01116-2 G12C): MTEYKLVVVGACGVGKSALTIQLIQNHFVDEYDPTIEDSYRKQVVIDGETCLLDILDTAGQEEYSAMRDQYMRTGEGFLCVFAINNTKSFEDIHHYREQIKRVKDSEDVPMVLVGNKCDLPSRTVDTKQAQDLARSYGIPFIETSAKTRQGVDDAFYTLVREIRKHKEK
Chain of KRas G12R (P01116 1-169 isoform P01116-2 G12R): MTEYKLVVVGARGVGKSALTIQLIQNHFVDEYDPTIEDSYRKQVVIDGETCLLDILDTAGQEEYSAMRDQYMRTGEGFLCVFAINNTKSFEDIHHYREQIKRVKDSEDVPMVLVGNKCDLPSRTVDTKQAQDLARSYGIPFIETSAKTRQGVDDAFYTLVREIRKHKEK
Chain of KRas G13D (P01116 1-169 isoform P01116-2 G13D): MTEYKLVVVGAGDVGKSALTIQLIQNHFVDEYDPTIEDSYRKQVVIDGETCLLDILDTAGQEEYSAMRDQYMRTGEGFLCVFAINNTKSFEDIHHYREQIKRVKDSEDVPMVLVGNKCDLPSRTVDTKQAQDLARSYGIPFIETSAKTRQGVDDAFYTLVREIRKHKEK
Chain of KRas G12S (P01116 1-169 isoform P01116-2 G12S): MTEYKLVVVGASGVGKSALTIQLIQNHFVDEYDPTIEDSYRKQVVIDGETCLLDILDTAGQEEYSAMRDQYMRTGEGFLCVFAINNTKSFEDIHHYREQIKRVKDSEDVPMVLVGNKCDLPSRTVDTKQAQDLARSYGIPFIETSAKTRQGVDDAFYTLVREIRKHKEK
Chain of KRas WT (P01116 1-169 isoform P01116-2): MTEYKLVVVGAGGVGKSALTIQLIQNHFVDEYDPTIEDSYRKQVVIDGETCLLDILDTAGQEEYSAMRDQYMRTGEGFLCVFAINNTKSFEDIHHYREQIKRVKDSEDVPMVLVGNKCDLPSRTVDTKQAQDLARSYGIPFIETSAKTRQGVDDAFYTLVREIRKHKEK
Chain of KRas G12A (P01116 1-169 isoform P01116-2 G12A): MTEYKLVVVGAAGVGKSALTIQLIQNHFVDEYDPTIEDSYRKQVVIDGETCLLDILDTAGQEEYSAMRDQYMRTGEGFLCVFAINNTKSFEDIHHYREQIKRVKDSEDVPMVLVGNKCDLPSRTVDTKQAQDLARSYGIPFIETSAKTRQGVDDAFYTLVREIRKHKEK

As for `Cc1cc2[nH]ncc2c(N2CCc3c(nc(OCC45CCCN4CCC5)nc3N3CCCC4(CC(O)C4)C3)C2)c1C` (single isomer, unassigned; isomer 1) [Example 453, 6-(7-(5,6-dimethyl-1H-indazol-4-yl)-2-((hexahydro-1H-pyrrolizin-7a-yl)methoxy)-5,6,7,8-tetrahydropyrido[3,4-d]pyrimidin-4-yl)-6-azaspiro[3.5]nonan-2-ol (isomer 1)], the half-maximal inhibitory concentration (IC50) on KRas WT amounted to 826 nM; at KRas G12A, 523 nM; on KRas G12C, 464 nM; on KRas G12S, 616 nM; at KRas G13D it was 1150 nM; at KRas Q61H, 1150 nM. Further, the half-inhibitory concentration (IC50) came out at 9380 nM with ASPC1 cells; 5760 nM in the test on H727 cells; 604 nM at KRas G12D; 680 nM on KRas G12R; 262 nM on KRas G12V.
`O=S1(=O)NCC2(CCCN(c3nc(OCC45CCCN4CCC5)nc4c3CCN(c3cc(O)cc(Cl)c3C3CC3)C4)C2)N1` (stereo not drawn) [Example 438, 7-(7-(3-chloro-2-cyclopropyl-5-hydroxyphenyl)-2-((tetrahydro-1H-pyrrolizin-7a(5H)-yl)methoxy)-5,6,7,8-tetrahydropyrido[3,4-d]pyrimidin-4-yl)-2-thia-1,3,7-triazaspiro[4.5]decane 2,2-dioxide]: the IC50 on KRas WT, at KRas G12A, on KRas G12C, at KRas G12S, at KRas G13D and on KRas Q61H was less than 2 nM each time. In addition, the IC50 in the test on ASPC1 cells is 5610 nM; in the test on H727 cells, 8000 nM; on KRas G12D, less than 2 nM; at KRas G12R, less than 2 nM; at KRas G12V, less than 2 nM. The values for the inhibition at 0.1 µM in the test with ASPC1 cells and with H727 cells were -4% and -7%, respectively.
For `O=C1NC(=O)C2(CCCN(c3nc(OCC45CCCN4CCC5)nc4c3CCN(c3cc(O)cc(Cl)c3C3CC3)C4)C2)N1` (stereo not drawn) [Example 439, 7-(7-(3-chloro-2-cyclopropyl-5-hydroxyphenyl)-2-((tetrahydro-1H-pyrrolizin-7a(5H)-yl)methoxy)-5,6,7,8-tetrahydropyrido[3,4-d]pyrimidin-4-yl)-1,3,7-triazaspiro[4.5]decane-2,4-dione], the IC50 at KRas WT, at KRas G12A, on KRas G12C, on KRas G12S, at KRas G13D and at KRas Q61H was less than 2 nM each time. Further, the IC50 in the test with ASPC1 cells is greater than 10000 nM; in the test on H727 cells, 6240 nM; on KRas G12D it was 2 nM; on KRas G12R, less than 2 nM; at KRas G12V, less than 2 nM.
Take `O=C1NCC2(CCCN(c3nc(OCC45CCCN4CCC5)nc4c3CCN(c3cc(O)cc(Cl)c3C3CC3)C4)C2)N1` (stereo not drawn) [Example 442, 7-(7-(3-chloro-2-cyclopropyl-5-hydroxyphenyl)-2-((tetrahydro-1H-pyrrolizin-7a(5H)-yl)methoxy)-5,6,7,8-tetrahydropyrido[3,4-d]pyrimidin-4-yl)-1,3,7-triazaspiro[4.5]decan-2-one]: the IC50 at KRas WT is 3 nM; on KRas G12A it was less than 2 nM; on KRas G12C, less than 2 nM; on KRas G12S it was 3 nM; on KRas G13D, 4 nM; on KRas Q61H, 2 nM. Besides, the IC50 was greater than 10000 nM in the test with ASPC1 cells; greater than 10000 nM with H727 cells; less than 2 nM at KRas G12D; 3 nM on KRas G12R; 3 nM at KRas G12V. In addition, the inhibition at 0.1 µM was 9% in the test on ASPC1 cells and -4% in the test with H727 cells.
Consider `O=C1CC2(CCCN(c3nc(OCC45CCCN4CCC5)nc4c3CCN(c3cc(O)cc(Cl)c3C3CC3)C4)C2)N1` (stereo not drawn) [Example 443, 6-(7-(3-chloro-2-cyclopropyl-5-hydroxyphenyl)-2-((tetrahydro-1H-pyrrolizin-7a(5H)-yl)methoxy)-5,6,7,8-tetrahydropyrido[3,4-d]pyrimidin-4-yl)-1,6-diazaspiro[3.5]nonan-2-one], for which the IC50 on KRas WT turned out to be 8 nM; at KRas G12A, 6 nM; on KRas G12C it was 3 nM; at KRas G12S it was 4 nM; at KRas G13D it was 8 nM; on KRas Q61H, 5 nM. Further, the IC50 in the test on ASPC1 cells was greater than 10000 nM; in the test with H727 cells, 8580 nM; on KRas G12D it was 6 nM; at KRas G12R it was 4 nM; on KRas G12V it was 3 nM. In addition, the inhibition at 0.1 µM with ASPC1 cells is -16%; with H727 cells, -25%.
For the compound `Oc1cc(Cl)c(C2CC2)c(N2CCc3c(nc(OCC45CCCN4CCC5)nc3N3CC4CC(O)C(C4)C3)C2)c1` (stereo not drawn) [Example 444, 3-(7-(3-chloro-2-cyclopropyl-5-hydroxyphenyl)-2-((tetrahydro-1H-pyrrolizin-7a(5H)-yl)methoxy)-5,6,7,8-tetrahydropyrido[3,4-d]pyrimidin-4-yl)-3-azabicyclo[3.2.1]octan-6-ol], the IC50 on KRas WT came out at 50 nM; at KRas G12A it was 52 nM; at KRas G12C it was 64 nM; at KRas G12S it was 42 nM; on KRas G13D it was 53 nM; on KRas Q61H it was 87 nM. The half-maximal inhibitory concentration (IC50) with ASPC1 cells came out at 8870 nM; in the test on H727 cells it was 5680 nM; on KRas G12D it was 133 nM; on KRas G12R, 40 nM; at KRas G12V it was 38 nM.
Turning to `O=C1NC(=O)C2CN(c3nc(OCC45CCCN4CCC5)nc4c3CCN(c3cc(O)cc(Cl)c3C3CC3)C4)CC12` (stereo not drawn) [Example 445, 5-(7-(3-chloro-2-cyclopropyl-5-hydroxyphenyl)-2-((tetrahydro-1H-pyrrolizin-7a(5H)-yl)methoxy)-5,6,7,8-tetrahydropyrido[3,4-d]pyrimidin-4-yl)tetrahydropyrrolo[3,4-c]pyrrole-1,3(2H,3aH)-dione], the 50% inhibitory concentration (IC50) at KRas WT is 7 nM; at KRas G12A it was 8 nM; on KRas G12C, 7 nM; on KRas G12S, 3 nM; at KRas G13D it was 7 nM; at KRas Q61H, 9 nM. In addition, the half-maximal inhibitory concentration (IC50) with ASPC1 cells is greater than 10000 nM; in the test with H727 cells, greater than 10000 nM; at KRas G12D, 4 nM; on KRas G12R it was 8 nM; at KRas G12V, 4 nM. In addition, the inhibition at 0.1 µM in the test on ASPC1 cells is -9%; in the test with H727 cells, 13%.
Regarding `Cc1cc2[nH]ncc2c(N2CCc3c(nc(OC[C@@]45CCCN4C[C@H](F)C5)nc3N3CCC[C@]4(C3)NC(=O)NC4=O)C2)c1C` [Example 450, (R)-7-(7-(5,6-dimethyl-1H-indazol-4-yl)-2-(((2R,7aS)-2-fluorohexahydro-1H-pyrrolizin-7a-yl)methoxy)-5,6,7,8-tetrahydropyrido[3,4-d]pyrimidin-4-yl)-1,3,7-triazaspiro[4.5m] odecane-2,4-dione], the concentration for half-maximal inhibition (IC50) at KRas WT turned out to be 8 nM; at KRas G12A it was 8 nM; on KRas G12C, 7 nM; on KRas G12S, 7 nM; on KRas G13D, 6 nM; at KRas Q61H, 5 nM. The IC50 in the test with ASPC1 cells came out at 3490 nM; in the test on H727 cells it was 1270 nM; on KRas G12D, 5 nM; at KRas G12R, 3 nM; on KRas G12V, 3 nM.
`CCc1cccc2cccc(N3CCc4c(nc(OCC5(CN(C)C)CC5)nc4N4CCCN(CC(F)(F)F)CC4)C3)c12` [Example 684, 1-(1-(((7-(8-ethylnaphthalen-1-yl)-4-(4-(2,2,2-trifluoroethyl)-1,4-diazepan-1-yl)-5,6,7,8-tetrahydropyrido[3,4-d]pyrimidin-2-yl)oxy)methyl)cyclopropyl)-N,N-dimethylmethanamine]: the IC50 was determined as 1880 nM on KRas WT; 2640 nM on KRas G12A; 1810 nM on KRas G12C; 1960 nM at KRas G12S; 2220 nM on KRas G13D; 2210 nM on KRas Q61H. In addition, the IC50 stood at 41700 nM at KRas G12D, 11400 nM at KRas G12R and 11200 nM at KRas G12V.
As for `CCc1cccc2cccc(N3CCc4c(nc(OCC5(CN(C)C)CC5)nc4N(C)Cc4nnc5c(=O)n(C)ccn45)C3)c12` [Example 700, 3-(((2-((1-((dimethylamino)methyl)cyclopropyl)methoxy)-7-(8-ethylnaphthalen-1-yl)-5,6,7,8-tetrahydropyrido[3,4-d]pyrimidin-4-yl)(methyl)amino)methyl)-7-methyl-[1,2,4]triazolo[4,3-a]pyrazin-8(7H)-one], the IC50 came out at 522 nM on KRas WT; 474 nM on KRas G12A; 251 nM on KRas G12C; 399 nM at KRas G12S; 374 nM at KRas G13D; 577 nM at KRas Q61H. The half-maximal inhibitory concentration (IC50) at KRas G12D was 1380 nM; on KRas G12R it was 687 nM; at KRas G12V, 452 nM.
